{"source": "patent US9023788B2", "about": "“Methods compounds and pharmaceutical compositions for treating anxiety and mood disorders” (New York University, priority 2010, dated 2015)", "key": {"[1]": {"tested_on": "mice", "details": "months of chronic treatment (Doze et al. 2009); cited from earlier work"}, "[2]": {"tested_on": "mice", "details": "months of chronic treatment (Doze et al. 2009); cited from earlier work", "remark": "listed apart in the source"}, "[3]": {"tested_on": "brain α-adrenoceptors", "details": "cited from earlier work"}, "[4]": {"tested_on": "handling-stressed mice", "test": "Home cage activity after handling and injection stress", "format": "in vivo, mouse", "details": "acute i.p. dp6FNE 1 mg/kg in the presence of phentolamine; cirazoline 0.1 mg/kg; FIG. 3", "experimental": "FIG. 3 depicts the effect of acute i.p. dp6FNE (1 mg/kg) or cirazoline (0.1 mg/kg), (both N=1), on home cage activity in terms of rearing and ambulation, Veh (N=12).\nIt is known that peripheral administration of α1-agonists without phentolamine impairs exploratory behavior in the open field (Yang, et al., J Pharmacol exp Ther 1990; 255: 1064-1070)."}, "[5]": {"tested_on": "mice", "details": "given chronically in the drinking water; cited from earlier work"}, "[6]": {"tested_on": "α2-adrenoceptors", "details": "atipamezole 0.5 mg/kg; cited from earlier work"}, "[7]": {"tested_on": "Swiss Webster male mice", "test": "Tail suspension test", "format": "in vivo, mouse", "details": "for effect of coinfused antagonist on anti-immobility effect of 6FNE: 6FNE 3 nmoles + antagonist 1 nmole ivt.; for effect of antagonist alone on immobility (antagonist+vehicle versus vehicle-only): antagonist 1 nmole ivt.; for immobility versus vehicle: acute ivt. 6FNE or DEX, DMI subacute i.p. 10 mg/kg, 10 mg/kg", "method": "(§2) In experiment on chronic administration, a daily dose of 0.5 mg/kg in the same vehicle was administered for 11 d.\n(§3) Infusion procedure. All experiments were performed between 1000 and 1400 hr. […] A total of 350 n1 of solution was infused at 100 nl/min over a 3.5 min period with the cannula remaining in place for 30 seconds after infusion. The animal was then subjected to the behavioral tests described below making the interval between the start of infusion and start of behavioral test 4.5-5 min. […] All drugs were prepared freshly each day in saline.\nTail suspension test: The procedure of Stem, et al., Psychopharmacology 1985; 85: 367-370 was used. Immediately following intraventricular infusion or 30 min after the third i.p. injection, the animals were taped by the tail 72 cm above a padded platform for 6 min during which time they were videorecorded. Disks were subsequently rated blind as above for times immobile during the last 4 min of the test."}, "[8]": {"tested_on": "α2-adrenoceptors", "details": "cited from earlier work"}, "[9]": {"tested_on": "Swiss Webster male mice", "test": "Repeated open space forced swim (RFS) test", "details": "for overall effect of antagonist pretreatment on distance swum / overall effect of antagonist pretreatment on immobility: prazosin 5 mg/kg or atipamezole 0.5 mg/kg i.p.", "method": "as §2, §3\nIn this procedure, mice are swum for 15-20 min/d for 4 d in rat tub cages (24×43×23 cm, w×h×l) filled with 13 cm high luke-warm water (32-34° C.) and thereafter once or twice a week. […] In the present experiment, the animals were matched on immobility level of the 4th swim into vehicle and drug groups and infused ivt. just prior to the 5th swim. Groups given i.p. injections were dosed initially 5 min after the 4th swim and finally 30 min prior to the 5th swim. Discs were rated as above on immobility and distance swum (number of quadrants entered)."}, "[10]": {"tested_on": "mice", "test": "Light/dark box test", "format": "in vivo, mouse", "details": "dp6FNE 0, 1, 3, 10 mg/kg i.p. plus phentolamine 1 mg/kg; Example 6, expected", "experimental": "(§1) To verify that dp6FNE has anxiolytic effects this agent is tested in both the light/dark box (Shimada, et al., Gen Pharmac 1995; 26: 205-210) and elevated plus-maze (Pellow, et al., J Neurosci Methods 1985; 14: 149-167). […] For the plus-maze, the animal is placed in the center section of the maze and videotaped to determine both number of entries and time spent in the open and closed arms of the maze."}, "[11]": {"tested_on": "Swiss Webster male mice", "test": "Observation for sedation and signs of toxicity", "format": "in vivo, mouse", "description": "Sedation interferes with behavioral performance and is therefore a detrimental side effect to the treatment of major depressive illness in humans.\nAlthough dp6FNE was designed to be a temporary treatment, it was of interest to determine how long it would remain effective if given repeatedly."}, "[12]": {"tested_on": "Swiss Webster male mice", "test": "Open field motor activity and anxiety (i.p. dp6FNE/prazosin)", "format": "in vivo, mouse", "details": "1 h; dp6FNE 0.1-3 mg/kg/prazosin; amphetamine 2 mg/kg i.p.", "experimental": "For purposes of comparison, some animals received instead d-amphetamine, 2 mg/kg, i.p. Total quadrants entered and time in the center area of the field as a ratio to the total distance traveled were rated from videorecordings."}, "[13]": {"tested_on": "mice", "test": "Elevated plus-maze test", "format": "in vivo, mouse", "details": "dp6FNE 0, 1, 3, 10 mg/kg i.p. plus phentolamine 1 mg/kg; Example 6, expected", "experimental": "as §1"}, "[14]": {"test": "Chronic mild stress (CMS)-anhedonia model, sweetened milk consumption", "format": "in vivo", "details": "FIG. 5", "description": "The latter property may actually be beneficial as it would counter the weight gain frequently reported with antidepressant treatment (Richelson, Mayo Clin Proc 2001; 76: 511-527)."}, "[15]": {"details": "in vivo; cited from earlier work"}, "[16]": {"tested_on": "α1-adrenoceptors", "details": "cited from earlier work"}, "[17]": {"tested_on": "LC α1-adrenoceptors", "test": "Novel cage test after LC microinjection", "format": "in vivo, rat", "details": "for Gross movements: 15 min novel cage"}, "[18]": {"tested_on": "Fos expression in LC, PVH, lateral septal nucleus and NAC", "details": "stimulation or blockade of LC α1-receptors (Stone et al. 2011); cited from earlier work"}, "[19]": {"tested_on": "cortical α1-adrenoceptors", "details": "prazosin 5 mg/kg; cited from earlier work"}, "[20]": {"details": "Outside LC (n = 23), 3 nmoles/side"}, "[21]": {"details": "Within LC (n = 25), 3 nmoles/side"}, "[22]": {"details": "entire within LC group vs vehicle, 3 nmoles/side"}}, "note": "Read-outs that look alike come from different tables or passages of the source. Marks after values point to notes of the source that are not given here."}
{"smiles": "c1ccc(C2CC2)c(OCC2=NCCN2)c1", "note": "[cirazoline]", "values": [{"measurement": "anxiety measured by behavioral inhibition", "setting": "[1]", "value": "failed to affect anxiety"}, {"measurement": "anxiety measured by behavioral inhibition", "setting": "[2]", "value": "failed to affect anxiety"}, {"measurement": "agonist efficacy", "setting": "[3]", "value": "partial agonists"}, {"measurement": "home cage exploration / behavioral inhibition after handling and injection stress", "setting": "[4]", "value": "not effective in reducing behavioral inhibition"}, {"measurement": "antidepressant effect", "setting": "[5]", "value": "significant antidepressant effects in the forced swim test"}]}
{"smiles": "CCC1(c2cnc[nH]2)Cc2ccccc2C1", "note": "[atipamezole]", "values": [{"measurement": "blockade of sedative and hypothermic effects of a low dose of dexmedetomidine", "setting": "[6]", "value": "approximately 70%"}, {"measurement": "effect of coinfused antagonist on anti-immobility effect of 6FNE", "setting": "[7]", "value": "totally abolished the effect of 6FNE"}, {"measurement": "effect of antagonist alone on immobility (antagonist+vehicle versus vehicle-only)", "setting": "[7]", "value": "had no effect in this group"}, {"measurement": "affinity for respective receptor", "setting": "[8]", "value": "low nanomolar affinities"}, {"measurement": "overall effect of antagonist pretreatment on distance swum", "setting": "[9]", "value": "no significant overall action"}, {"measurement": "overall effect of antagonist pretreatment on immobility", "setting": "[9]", "value": "no significant overall effect"}]}
{"smiles": "Cc1cccc([C@H](C)c2cnc[nH]2)c1C", "note": "[dexmedetomidine]", "values": [{"measurement": "immobility versus vehicle", "setting": "[7]", "value": "equally effective"}, {"measurement": "immobility versus vehicle", "setting": "[7]; listed as DEX", "value": "significant dose-dependent decrease in immobility"}, {"measurement": "affinity for respective receptor", "setting": "[8]", "value": "low nanomolar affinities"}, {"measurement": "distance swum versus vehicle", "setting": "[9]; 5th swim, acute ivt. 6FNE or DEX, DMI subacute i.p. 10 mg/kg", "value": "failed to have an overall significant effect"}, {"measurement": "immobility versus vehicle", "setting": "[9]; 5th swim, acute ivt. 6FNE or DEX, DMI subacute i.p. 10 mg/kg, 10 mg/kg", "value": "only 6FNE was effective"}, {"measurement": "immobility versus vehicle", "setting": "[9]; 5th swim, acute ivt. 6FNE or DEX, DMI subacute i.p. 10 mg/kg, listed as DEX, 10 mg/kg", "value": "failed to have an overall significant effect on immobility"}, {"measurement": "immobility at single dose", "setting": "[9]; DEX 0.04 nmoles ivt.", "value": "borderline significant reduction in immobility"}]}
{"smiles": "CC(C)(C)C(=O)Oc1cc(F)c(C(O)CN)cc1OC(=O)C(C)(C)C", "note": "(stereo not drawn) [dp6FNE, Dipivalyl-6-fluoronorepinephrine]", "values": [{"measurement": "time spent in the lighted side", "setting": "[10]", "value": "increased time spent"}, {"measurement": "antidepressant action in tail suspension test", "setting": "[7]; i.p. 1, 3 and 10 mg/kg, FIG. 5", "value": "significant antidepressant action"}, {"measurement": "signs of toxicity (reduced arousal, disheveled fur coat)", "setting": "[11]; after repeated treatment, 0.5 mg/kg i.p. 11 daily treatments, no formal measures", "value": "no obvious signs of toxicity"}, {"measurement": "sedation", "setting": "[11]; intracerebral 6FNE or peripheral dp6FNE, range of behavioral tests", "value": "Sedation has not been observed"}, {"measurement": "home cage exploration / behavioral inhibition after handling and injection stress", "setting": "[4]", "value": "same rescue of home cage exploration"}, {"measurement": "motor activity (quadrants entered)", "setting": "[12]", "value": "little or no effect on locomotor activity"}, {"measurement": "relative time in the center of the field", "setting": "[12]", "value": "increased time in the center of the field"}, {"measurement": "time spent in the open arms", "setting": "[13]", "value": "increased time spent"}, {"measurement": "onset of action compared with available antidepressants", "setting": "[9]; acute i.p. administration", "value": "significantly faster onset of action"}, {"measurement": "effect in repeated open-space swim test", "setting": "[9]; acute i.p., dp6FNE 1, 3, 10 mg/kg with prazosin 0.2 mg/kg, DMI 10 mg/kg, FIG. 5", "value": "significant antidepressant action"}, {"measurement": "immobility versus vehicle", "setting": "[9]; dp6FNE 0.3 mg/kg with prazosin 0.2 mg/kg, animals not pretreated with either antagonist", "value": "significantly reduced immobility versus vehicle"}, {"measurement": "distance swum versus vehicle", "setting": "[9]; dp6FNE 0.3 mg/kg with prazosin 0.2 mg/kg, animals not treated with either antagonist", "value": "significantly increased distances swum"}, {"measurement": "speed or efficacy compared with partial α1-agonists", "setting": "[9]; i.p. 0, 1, 3, 10 mg/kg with phentolamine 1 mg/kg, 30 min before swim, Example 5, expected", "value": "more rapid or efficacious than the partial α1-agonists"}, {"measurement": "CMS reduction of sweetened milk intake", "setting": "[14]; acute i.p. dp6FNE with prazosin 0.2 mg/kg", "value": "eliminates the CMS reduction of intake"}, {"measurement": "hypophagia", "setting": "[14]; acute i.p. dp6FNE", "value": "significant hypophagia"}, {"measurement": "passage of the blood brain barrier / uptake by the brain", "setting": "[15]", "value": "does pass the blood brain barrier"}]}
{"smiles": "COc1cc2nc(N3CCN(C(=O)C4CCCO4)CC3)nc(N)c2cc1OC", "note": "(stereo not drawn) [terazosin]", "values": [{"measurement": "affinity for respective receptor", "setting": "[16]", "value": "low nanomolar affinities"}, {"measurement": "effect of coinfused antagonist on anti-immobility effect of 6FNE", "setting": "[7]", "value": "significantly increased immobility when coinfused with 6FNE"}, {"measurement": "effect of antagonist alone on immobility (antagonist+vehicle versus vehicle-only)", "setting": "[7]", "value": "significantly increased immobility in the vehicle-treated animals"}, {"measurement": "Cage midline crosses", "setting": "[17]; [20]", "value": "16.4 ± 1.5^c"}, {"measurement": "Time immobile (min)", "setting": "[17]; [20]", "value": "2.2 ± 0.5^c min"}, {"measurement": "Gross movements", "setting": "[17]; [20]", "value": "123.5 ± 7.9^c"}, {"measurement": "Cage midline crosses", "setting": "[17]; [21]", "value": "9.2 ± 2.0^b,e"}, {"measurement": "Time immobile (min)", "setting": "[17]; [21]", "value": "7.2 ± 1.6^b,d min"}, {"measurement": "Gross movements", "setting": "[17]; [21]", "value": "71.7 ± 11.7^a,d"}, {"measurement": "TI-", "setting": "[17]; bilaterally injected animals", "value": "7.4 ± 1.4", "unit": "min"}, {"measurement": "percent decrease of GMs with respect to vehicle", "setting": "[17]; bilaterally injected animals", "value": "54.6±9.1", "unit": "%"}, {"measurement": "percent decrease of cage Xs with respect to vehicle", "setting": "[17]; bilaterally injected animals", "value": "53.7±12.1", "unit": "%"}, {"measurement": "percent depression of GMs compared to mean of the vehicle group", "setting": "[17]; direct hits of LC", "value": "63.5±7.2", "unit": "%"}, {"measurement": "increase of TI", "setting": "[17]; [22]", "value": 77, "unit": "fold"}, {"measurement": "reduction of GMs", "setting": "[17]; [22]", "value": 54, "unit": "%"}, {"measurement": "reduction of cage Xs", "setting": "[17]; [22]", "value": 55, "unit": "%"}, {"measurement": "percent depression of GMs compared to mean of the vehicle group", "setting": "[17]; injection within 200μ of LC", "value": "54.0±7.5", "unit": "%"}, {"measurement": "percent depression of GMs compared to mean of the vehicle group", "setting": "[17]; injection within 500μ of LC", "value": "45.6±7.0", "unit": "%"}, {"measurement": "TI-", "setting": "[17]; unilaterally injected animals", "value": "6.1 ± 1.7", "unit": "min"}, {"measurement": "percent decrease of GMs with respect to vehicle", "setting": "[17]; unilaterally injected animals", "value": "50.5±11.1", "unit": "%"}, {"measurement": "percent decrease of cage Xs with respect to vehicle", "setting": "[17]; unilaterally injected animals", "value": "52.1±16.5", "unit": "%"}, {"measurement": "neural activity of the LC measured from c-Fos expression", "setting": "[18]", "value": "excitation of virtually every neuron of the nucleus"}]}
{"smiles": "COc1cc2nc(N3CCN(C(=O)c4ccco4)CC3)nc(N)c2cc1OC", "note": "[prazosin]", "values": [{"measurement": "block of cortical α1-adrenoceptors by ex vivo binding", "setting": "[19]", "value": 30, "unit": "%"}, {"measurement": "overall effect of antagonist pretreatment on distance swum", "setting": "[9]", "value": "significant overall decrease of distance swum"}, {"measurement": "overall effect of antagonist pretreatment on immobility", "setting": "[9]", "value": "significant overall increase of immobility"}, {"measurement": "effect of antagonist alone on TST or RFS measures", "setting": "[9]; prazosin alone 0.2 mg/kg", "value": "did not affect these measures"}]}
